# From ChEMBL document CHEMBL1909046, “DrugMatrix in vitro pharmacology data”
# pIC50, pKi: −log10 of the molar value.
# Legend:
# Melanocortin receptor 5 = Melanocortin receptor 5 (Homo sapiens, UniProt P33032); format: cell membranes, HEK293, Membrane; conditions: hek293; further: in other assays of this panel Not Active means under 50% inhibition at 10 µM
# [1] = molecular target: Sodium-dependent noradrenaline transporter (Homo sapiens, UniProt P23975); assay: DRUGMATRIX: Norepinephrine Transporter radioligand binding (ligand: [125I] RTI-55); format: cell membranes, MDCK, Membrane; conditions: mdck; Not Active = under 50% inhibition at 10 µM
# [2] = DRUGMATRIX: Sodium/nucleoside co-transporter radioligand binding (ligand: nitrobenzylthioinosine); format: cell membranes, Cavia porcellus, Dunkin-Hartley, Cerebral cortex, Membrane; conditions: Not Active = under 50% inhibition at 10 µM
# [3] = molecular target: Mitogen-activated protein kinase 3 (Homo sapiens, UniProt P27361); assay: DRUGMATRIX: Protein Serine/Threonine Kinase, ERK1 enzyme inhibition (substrate: Myelin Basic Protein); design: species or system Escherichia coli; conditions: Not Active = under 50% inhibition at 10 µM
# [4] = molecular target: C-C chemokine receptor type 5 (Homo sapiens, UniProt P51681); format: cell membranes, Membrane; conditions: hek293; further: in other assays of this panel Not Active means under 50% inhibition at 10 µM
# Adenosine receptor A3 = molecular target: T1, Adenosine receptor A3 (Homo sapiens, UniProt P0DMS8); format: cell membranes, CHO-K1, Membrane; conditions: for IC50: cho-k1;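 on all read-outs here: radioligand binding assay with AB-MECA serving as the labeled ligand; in other assays of this panel Not Active means under 50% inhibition at 10 µM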
# T1 sequence (P0DMS8 whole entry): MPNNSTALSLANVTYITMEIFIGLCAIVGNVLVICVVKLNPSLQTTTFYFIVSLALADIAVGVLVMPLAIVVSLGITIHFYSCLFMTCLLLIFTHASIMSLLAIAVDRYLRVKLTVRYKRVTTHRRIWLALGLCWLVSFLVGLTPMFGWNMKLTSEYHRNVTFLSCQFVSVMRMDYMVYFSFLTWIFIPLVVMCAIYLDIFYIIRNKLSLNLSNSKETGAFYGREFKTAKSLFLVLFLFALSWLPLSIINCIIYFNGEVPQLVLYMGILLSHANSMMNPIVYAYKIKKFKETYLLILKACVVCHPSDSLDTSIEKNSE
# Vasopressin V1a receptor = Vasopressin V1a receptor (Homo sapiens, UniProt P37288); format: cell membranes, Membrane; conditions: hek293; further: in other assays of this panel Not Active means under 50% inhibition at 10 µM
# Sequence of Vasopressin V1a receptor (P37288 whole entry): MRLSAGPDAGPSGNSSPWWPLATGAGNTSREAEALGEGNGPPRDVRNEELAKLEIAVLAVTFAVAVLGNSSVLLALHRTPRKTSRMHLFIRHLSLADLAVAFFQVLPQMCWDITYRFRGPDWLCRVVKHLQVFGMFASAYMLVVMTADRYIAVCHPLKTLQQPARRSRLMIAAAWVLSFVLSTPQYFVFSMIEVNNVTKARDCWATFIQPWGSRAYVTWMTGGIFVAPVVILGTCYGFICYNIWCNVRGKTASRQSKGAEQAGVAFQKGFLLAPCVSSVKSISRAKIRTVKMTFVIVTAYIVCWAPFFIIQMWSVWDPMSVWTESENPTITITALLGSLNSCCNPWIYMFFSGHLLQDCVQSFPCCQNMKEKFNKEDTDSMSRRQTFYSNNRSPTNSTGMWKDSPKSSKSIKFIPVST
# Sequence of Melanocortin receptor 5 (P33032 whole entry): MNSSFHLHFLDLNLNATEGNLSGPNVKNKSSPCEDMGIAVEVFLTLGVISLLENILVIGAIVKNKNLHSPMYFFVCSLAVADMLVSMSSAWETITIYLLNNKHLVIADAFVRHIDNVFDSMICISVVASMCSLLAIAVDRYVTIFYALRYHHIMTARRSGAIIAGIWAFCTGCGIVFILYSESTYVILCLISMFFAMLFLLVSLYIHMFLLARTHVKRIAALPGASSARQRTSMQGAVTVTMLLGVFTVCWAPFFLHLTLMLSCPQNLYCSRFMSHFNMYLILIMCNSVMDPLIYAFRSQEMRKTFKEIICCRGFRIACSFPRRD
# Sequence of C-C chemokine receptor type 5 (P51681 whole entry): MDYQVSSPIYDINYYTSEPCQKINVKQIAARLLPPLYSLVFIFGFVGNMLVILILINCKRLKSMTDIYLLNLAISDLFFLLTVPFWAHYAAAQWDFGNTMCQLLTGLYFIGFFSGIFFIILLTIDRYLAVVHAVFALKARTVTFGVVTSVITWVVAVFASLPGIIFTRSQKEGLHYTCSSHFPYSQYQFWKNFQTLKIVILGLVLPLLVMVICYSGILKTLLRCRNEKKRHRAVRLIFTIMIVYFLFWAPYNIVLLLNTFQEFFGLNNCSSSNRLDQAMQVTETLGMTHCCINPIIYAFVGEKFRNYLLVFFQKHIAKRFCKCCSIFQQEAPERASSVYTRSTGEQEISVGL
# Sequence of Mitogen-activated protein kinase 3 (P27361 whole entry): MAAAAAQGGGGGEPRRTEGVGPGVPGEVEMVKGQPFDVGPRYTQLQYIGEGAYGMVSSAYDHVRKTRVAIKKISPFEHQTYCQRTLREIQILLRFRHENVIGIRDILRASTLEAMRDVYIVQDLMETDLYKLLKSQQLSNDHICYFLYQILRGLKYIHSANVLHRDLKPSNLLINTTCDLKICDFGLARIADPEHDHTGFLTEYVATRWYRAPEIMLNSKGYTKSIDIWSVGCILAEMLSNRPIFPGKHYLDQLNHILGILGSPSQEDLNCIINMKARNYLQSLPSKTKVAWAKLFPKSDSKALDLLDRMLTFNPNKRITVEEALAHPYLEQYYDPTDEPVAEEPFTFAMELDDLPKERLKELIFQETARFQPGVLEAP
# Sequence of Sodium-dependent noradrenaline transporter (P23975 whole entry): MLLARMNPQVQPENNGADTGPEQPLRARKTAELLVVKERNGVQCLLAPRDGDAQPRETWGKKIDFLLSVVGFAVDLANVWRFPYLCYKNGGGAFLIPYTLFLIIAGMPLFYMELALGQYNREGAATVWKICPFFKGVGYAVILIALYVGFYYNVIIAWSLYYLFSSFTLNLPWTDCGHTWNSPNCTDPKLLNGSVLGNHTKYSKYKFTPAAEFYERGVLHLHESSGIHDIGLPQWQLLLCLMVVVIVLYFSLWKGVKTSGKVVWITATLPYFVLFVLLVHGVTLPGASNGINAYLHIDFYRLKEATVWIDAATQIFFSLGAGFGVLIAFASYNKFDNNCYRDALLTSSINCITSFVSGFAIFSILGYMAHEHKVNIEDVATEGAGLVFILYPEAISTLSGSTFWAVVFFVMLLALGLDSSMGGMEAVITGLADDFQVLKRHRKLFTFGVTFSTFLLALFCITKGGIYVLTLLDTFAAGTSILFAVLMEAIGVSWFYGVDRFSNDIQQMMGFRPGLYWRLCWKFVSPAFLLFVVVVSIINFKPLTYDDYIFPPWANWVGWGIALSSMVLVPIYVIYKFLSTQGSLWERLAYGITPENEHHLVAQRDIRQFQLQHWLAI
Structure (SMILES),IC50 (Melanocortin receptor 5),IC50 [1],IC50 [2],Ki [2],IC50 [3],IC50 [4],IC50 (Adenosine receptor A3),IC50 (Vasopressin V1a receptor),pIC50 (Adenosine receptor A3; read-out: IC50),pKi (Adenosine receptor A3; read-out: Ki)
CN1C(=O)CN=C(c2ccccc2)c2cc(Cl)ccc21 [DIAZEPAM],Not Active,Not Active,Not Active,Not Active,Not Active,Not Active,Not Active,Not Active,,
NC[C@H]1O[C@H](O[C@H]2[C@H](O)[C@@H](O[C@H]3O[C@H](CO)[C@@H](O)[C@H](N)[C@H]3O)[C@H](N)C[C@@H]2N)[C@H](O)[C@@H](O)[C@@H]1O [KANAMYCIN],Not Active,Not Active,Not Active,Not Active,Not Active,Not Active,Not Active,Not Active,,
COc1cc(CNC(=O)CCCC/C=C/C(C)C)ccc1O [CAPSAICIN],Not Active,Not Active,Not Active,Not Active,Not Active,Not Active,Not Active,Not Active,,
C[C@H](C(=O)O)c1cccc(C(=O)c2ccccc2)c1 [DEXKETOPROFEN],Not Active,Not Active,Not Active,Not Active,Not Active,Not Active,Not Active,Not Active,,
NC[C@@H]1O[C@H](O[C@H]2[C@@H](O)[C@H](O[C@@H]3[C@@H](O)[C@H](N)C[C@H](N)[C@H]3O[C@H]3O[C@H](CN)[C@@H](O)[C@H](O)[C@H]3N)O[C@@H]2CO)[C@H](N)[C@@H](O)[C@@H]1O [FRAMYCETIN],Not Active,Not Active,Not Active,Not Active,Not Active,Not Active,Not Active,Not Active,,
C[C@]12C/C(=C/O)C(=O)C[C@@H]1CC[C@@H]1[C@@H]2CC[C@@]2(C)[C@H]1CC[C@]2(C)O [OXYMETHOLONE],Not Active,Not Active,Not Active,Not Active,Not Active,Not Active,Not Active,Not Active,,
C[C@@H]1CC[C@H]2[C@@H](C)C(=O)O[C@@H]3O[C@@]4(C)CC[C@@H]1[C@]32OO4 [ARTEMISININ],Not Active,Not Active,Not Active,Not Active,Not Active,Not Active,Not Active,Not Active,,
CCOC(=O)[C@H](CCc1ccccc1)N[C@@H](C)C(=O)N1Cc2ccccc2C[C@H]1C(=O)O,Not Active,Not Active,Not Active,Not Active,Not Active,Not Active,Not Active,Not Active,,
C=C1/C(=C\C=C2/CCC[C@]3(C)[C@@H]([C@H](C)CCCC(C)C)CC[C@@H]23)C[C@@H](O)C[C@@H]1O [ALFACALCIDOL],Not Active,,Not Active,Not Active,Not Active,Not Active,Not Active,Not Active,,
CCCCC1C(=O)N(c2ccccc2)N(c2ccccc2)C1=O [PHENYLBUTAZONE],Not Active,Not Active,Not Active,Not Active,Not Active,Not Active,Not Active,Not Active,,
Cc1cn[nH]c1 [FOMEPIZOLE],Not Active,Not Active,Not Active,Not Active,Not Active,Not Active,Not Active,Not Active,,
COc1ccccc1OCC(O)CO (stereo unspecified) [GUAIFENESIN],Not Active,Not Active,Not Active,Not Active,Not Active,Not Active,Not Active,Not Active,,
[N-]=[N+]=CC(=O)OC[C@H](N)C(=O)O [AZASERINE],Not Active,Not Active,Not Active,Not Active,Not Active,Not Active,Not Active,Not Active,,
N[C@@H](Cc1ccc(F)cc1)C(=O)O,Not Active,Not Active,Not Active,Not Active,Not Active,Not Active,Not Active,Not Active,,
C#C[C@]1(O)CC[C@H]2[C@@H]3CCc4cc(O)ccc4[C@H]3CC[C@@]21C [ETHINYL ESTRADIOL],Not Active,,Not Active,Not Active,Not Active,Not Active,,Not Active,4.48,4.73
Cc1cnc(C(=O)NCCc2ccc(S(=O)(=O)NC(=O)NC3CCCCC3)cc2)cn1 [GLIPIZIDE],Not Active,Not Active,Not Active,Not Active,,Not Active,Not Active,Not Active,,
